# From patent publication US7867998B2, “Method of making antitussive medicine and relieving cough” (Hong Kong Jockey Club Institute of Chinese Medicine Limited, priority 2005, dated 2011)
# How the values were obtained:
# guinea pigs = test: Antitussive assay: citric acid aerosol-induced cough in conscious guinea pigs, intragastric administration; format: in vivo, guinea pig; details: 0.5 M citric acid aerosol for 10 min, versus 1st challenge, HCl salt form in saline
# Description: Unrestrained conscious guinea pigs were individually placed in a transparent Perspex airtight chamber and exposed to 0.5 M citric acid aerosol produced by an ultrasonic nebulizer (NEU12, Omron, Tokyo, Japan) for 10 min with a flow rate of 0.6 ml/min. During the 10 min observation period, the animals were continuously observed, and the numbers and timing of typical body movement of cough responses including opening the mouth, contraction of thoracic and abdomen muscles and a jerking of the front body were noted. The cough sounds were concurrently picked up via a microphone which connected to a personal computer and analyzed by Cool Edit 2000 software (Syntrillium, Phenix, USA). Thus a cough response can be differentiated from a sneeze and other background noises by observation of body movements, cough sound from loudspeakers and wave patterns recorded in the computer. Animals producing cough more than 18 times but less than 30 in the first challenge were selected for further antitussive tests. Cough episodes during the first challenge were recorded as control data. After 72 hour recovery, the selected sensitive animals were randomly divided into several groups with six animals in each group. The test samples were changed to their salt forms with 4% HCl to dissolve in saline and administrated intragastrically.
# In the present experiments, neotuberostemonine produced a reduction in cough episodes by 17 and 40% (P<0.01 versus 1st challenge) at 25 and 50 mg/kg i.g., respectively. […] These two alkaloids are different from neotuberostemonine in molecular skeletons (i.e., base structures). Neotuberostemonine belongs to the stenine group while croomine and stemoninine belong to the tuberostemospironine and stemoamide groups, respectively. […] Since croomine and stemoninine are the major components of Radix Stemonae, they provided scientific evidence for the use of Radix Stemonae for cough treatment in folk medicines and in PRC Pharmacopeia.
# cough = details: intraperitoneal, at the same dosage; Chung et al., Planta Med. 2003; cited from earlier work
SMILES,reduction in cough episodes (guinea pigs; 25 mg/kg i.g.),reduction in cough episodes (guinea pigs; 50 mg/kg i.g.),inhibition (of cough) (cough)
"C[C@@H]1C[C@]2(CCCCN3[C@H]2CC[C@H]3[C@@H]2C[C@H](C)C(=O)O2)OC1=O [croomine, Croomine]",35%,57%,–
CC[C@H]1[C@H]2[C@@H](CCCN3[C@H]2CC[C@H]3[C@@H]2C[C@H](C)C(=O)O2)O[C@]12C=C(C)C(=O)O2 [Stemoninine],32%,66%,–
"CC[C@@H]1[C@H]2CCCCN3[C@H]2[C@@H](C[C@H]3[C@@H]2C[C@H](C)C(=O)O2)[C@H]2[C@@H]1OC(=O)[C@H]2C [neotuberostemonine, reference compound]",17%,40%,85%
